{
  "source": "paper PMC9101642",
  "about": "(Molecules, 2022)",
  "key": {"[1]": {"target": "T1, ERα (Homo sapiens, UniProt P03372)", "T1 sequence (P03372 1-595)": "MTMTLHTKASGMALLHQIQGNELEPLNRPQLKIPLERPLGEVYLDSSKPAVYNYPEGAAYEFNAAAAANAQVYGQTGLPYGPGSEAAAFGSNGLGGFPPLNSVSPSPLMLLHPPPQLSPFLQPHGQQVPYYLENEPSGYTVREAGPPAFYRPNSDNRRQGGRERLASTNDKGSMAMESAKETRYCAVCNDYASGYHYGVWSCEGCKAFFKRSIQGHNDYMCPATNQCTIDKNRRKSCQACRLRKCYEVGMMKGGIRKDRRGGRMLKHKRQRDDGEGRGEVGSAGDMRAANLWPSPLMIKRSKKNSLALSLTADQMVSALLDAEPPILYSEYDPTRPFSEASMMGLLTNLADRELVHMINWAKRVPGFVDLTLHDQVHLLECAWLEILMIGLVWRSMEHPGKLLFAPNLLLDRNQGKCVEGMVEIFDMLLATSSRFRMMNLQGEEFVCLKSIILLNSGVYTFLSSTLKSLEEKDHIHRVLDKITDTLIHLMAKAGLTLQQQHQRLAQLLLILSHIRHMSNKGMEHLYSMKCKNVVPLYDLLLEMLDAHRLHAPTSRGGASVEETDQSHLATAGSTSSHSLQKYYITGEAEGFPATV", "assay": "Fluorescence polarization competition assay: antagonistic potency and relative binding affinity"}, "[2]": {"target": "ERβ (Homo sapiens, UniProt Q92731)", "sequence (Q92731 whole entry)": "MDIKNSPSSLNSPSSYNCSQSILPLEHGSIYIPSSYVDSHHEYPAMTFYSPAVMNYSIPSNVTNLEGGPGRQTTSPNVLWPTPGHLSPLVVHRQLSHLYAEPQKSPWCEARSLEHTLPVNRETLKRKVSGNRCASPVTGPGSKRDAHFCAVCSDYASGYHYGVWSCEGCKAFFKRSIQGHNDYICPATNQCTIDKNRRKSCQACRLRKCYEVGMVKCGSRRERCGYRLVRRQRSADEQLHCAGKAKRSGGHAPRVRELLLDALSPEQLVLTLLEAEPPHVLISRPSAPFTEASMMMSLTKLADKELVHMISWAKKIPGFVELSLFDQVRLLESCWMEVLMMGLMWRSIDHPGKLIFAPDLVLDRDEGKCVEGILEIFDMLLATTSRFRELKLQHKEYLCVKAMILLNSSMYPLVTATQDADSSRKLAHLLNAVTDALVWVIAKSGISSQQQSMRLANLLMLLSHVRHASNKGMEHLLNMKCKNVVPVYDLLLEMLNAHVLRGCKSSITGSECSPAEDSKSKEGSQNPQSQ", "assay": "Fluorescence polarization competition assay: antagonistic potency and relative binding affinity"}, "[3]": {"tested_on": "MCF-7 cell lines", "assay": "MTT antiproliferative assay", "type": "cell-based, human"}, "[4]": {"tested_on": "MDA-MB-231 cell lines", "assay": "MTT antiproliferative assay", "type": "cell-based, human", "settings": "Homo sapiens, MDA-MB-231, 48 h, read-out: MDA-MB-231 (IC50 nM)"}, "[5]": {"target": "T1, ERα", "assay": "ERα down-regulation immunofluorescence assay in MCF-7", "type": "cell-based", "settings": "ERα downregulation measured in MCF-7; read-out: MCF-7 DR (IC50 nM)"}, "[6]": {"tested_on": "progesterone receptor (PR)", "assay": "ERα functional antagonism cell assay (PR as biomarker) in MCF-7", "type": "cell-based", "settings": "Homo sapiens, MCF7; progesterone receptor as biomarker for ERα antagonism in MCF-7"}, "[7]": {"tested_on": "p53 promoter activity (p21 promoter)", "assay": "qChIP of ERα-p53 interaction on the p21 promoter in MCF-7", "type": "cell-based, human"}, "[8]": {"tested_on": "MNU-induced breast cancer", "assay": "In vivo anticancer screening, MNU-induced mammary tumorigenesis", "design": "species or system female Wistar rats"}, "[9]": {"assay": "Plasma protein binding determination", "type": "in vitro ADME, rat", "settings": "rat plasma, 37 °C, read-out: Rat PPB (%free)", "procedure": "Rats were housed at 3 per cage and\nThe breast cancer was induced after the MNU (Sigma Aldrich CAS No. 684-93-5) administration. An aqueous solution at a concentration of 10 mg/ml was made by wetting the NMU powder with 3% acetic acid and then dissolving it in 0.9% NaCl solution; a fresh solution was prepared for each injection. Rats were given intraperitoneal (i.p.) 50 mg/kg of MNU on the 50th day of age. Animals were divided into different groups with six animals in each group. Group I (intact control) received 0.9% NaCl solution.\nGroups II-IV and V-VII were introduced with MNU. Two weeks after MNU treatment, animals were treated orally with synthesized compounds and control substances (5 and 50 mg/kg, for groups II-IV and V-VII, respectively) by gavage once per day for six weeks. Animals in the intact control group and untreated MNU group were given vehicle (Tween 80) according to the experimental protocol. […]\nUpon finishing the treatment with synthesized compounds, animals were sacrificed, and plasma, serum, and liver samples were collected. […]\nRat plasma containing either 5 or 50 mg/kg bwt of the tested compounds was incubated at 37°C upper reservoir of the washed Centri-free YM-30 ultrafiltration units (Millipore, Bedford, MA) and then centrifuged for 20 min at 2,000 g. Aliquots of the ultrafiltrates and unfiltered incubation mixtures were analyzed for the total protein concentration by the bicinchoninic acid assay for protein concentration (BCA assay; Pierce, Rockford, IL)."}, "[10]": {"assay": "Liver oxidative stress markers after treatment of MNU-induced rats", "type": "in vivo, Wistar rats", "settings": "liver; for CAT: catalase activity; for GSH: reduced glutathione; for SOD (U/mg): superoxide dismutase activity; for TP: total protein content", "outline": "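Mammary tumours induced in rats by MNU 50 mg/kg i.p. at day 50; after two weeks, compounds given orally at 5 or 50 mg/kg once daily for six weeks. Serum AST, ALT (340 nm), ALP (405 nm) and bilirubin measured; liver homogenate GSH, CAT, MDA by colorimetry; plasma binding by ultrafiltration at 37°C with BCA protein read-out.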"}, "[11]": {"tested_on": "MNU-induced breast cancer tissue", "assay": "Histopathology of breast sections", "type": "in vivo, Wistar rats", "outline": "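Rats with MNU-induced breast cancer were given selected leads at two concentrations. Breast tissue was examined histopathologically for lobuloalveolar units and epithelial changes, with slides photographed at 200x.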"}, "[12]": {"settings": "rat, in vivo"}, "[13]": {"assay": "Lipophilicity by shake-flask method", "settings": "pH 7.4"}, "[14]": {"settings": "log of % relative binding affinity, estradiol = 100%"}, "[15]": {"settings": "dose 50 mg/kg (compounds per os after MNU; MNU alone i.p.)"}},
  "note": "Marks after values point to notes of the source that are not given here.",
  "data": [
    {"compound": "CC(=O)c1cc(C(=O)OC2/C=C/C(=O)O[C@@H](O)CCC/C=C/[C@@H]3C[C@H](O)C[C@@H]23)ccc1OCCN1CCC=C(C(=O)O)C1", "note": "(stereo partly drawn) [Compound 3DPQ-3, 1-(2-(2-acetyl-4-((((2E,6R,10E,11aS,13S,14aR)-6,13-dihydroxy-4-oxo-4,6,7,8,9,11a,12,13,14,14a-decahydro-1H-cyclopenta[f][1]oxacyclotridecin-1-yl)oxy)carbonyl)phenoxy)ethyl)-1,2,5,6-tetrahydropyridine-3-carboxylic acid]", "values": [
      {"measurement": "Ki", "setting": "[1]; calculated antagonistic (inhibitory) constant, read-out: Ka ERα", "value": 0.1, "unit": "nM"},
      {"measurement": "IC50", "setting": "[1]; concentration that antagonizes 50% of ERα signaling activity, read-out: ERα (IC50 nM)", "value": "0.44 ± 0.31", "unit": "nM"},
      {"measurement": "logRBA ERα", "setting": "[1]; [14]", "value": "2.31 ^†,‡,§"},
      {"measurement": "ERα potency, fold higher than Ral", "setting": "[1]; ratio of IC50 values", "value": 1.68, "unit": "fold"},
      {"measurement": "Ki", "setting": "[2]; calculated antagonistic (inhibitory) constant, read-out: Ka ERβ", "value": 42.1, "unit": "nM"},
      {"measurement": "IC50", "setting": "[2]; concentration that antagonizes 50% of ERβ signaling activity, read-out: ERβ (IC50 nM)", "value": "74.86 ± 0.14", "unit": "nM"},
      {"measurement": "logRBA ERβ", "setting": "[2]; [14]", "value": "0.08 ^†,‡,§"},
      {"measurement": "IC50", "setting": "[3]; Homo sapiens, MCF7, 48 h, read-out: MCF-7 (IC50 nM)", "value": "0.61 ± 0.56", "unit": "nM"},
      {"measurement": "MCF-7 antiproliferative potency, fold higher than Ral", "setting": "[3]; ratio of IC50 values", "value": 1.43, "unit": "fold"},
      {"measurement": "MCF-7 antiproliferative potency, fold lower than 3DPQ-12", "setting": "[3]; ratio of IC50 values", "value": 1.11, "unit": "fold"},
      {"measurement": "IC50", "setting": "[4]", "value": "86.63 ± 0.68", "unit": "nM"},
      {"measurement": "IC50", "setting": "[5]", "value": "> 100", "unit": "nM"},
      {"measurement": "IC50", "setting": "[6]", "value": "> 100", "unit": "nM"},
      {"measurement": "p53 promoter activity, fold higher than the one provoked by Ral", "setting": "[7]; higher concentration (1 nM)", "value": 0.61, "unit": "fold"},
      {"measurement": "p53 promoter activity, fold higher than the one provoked by Ral", "setting": "[7]; lower concentration (0.1 nM)", "value": 0.68, "unit": "fold"},
      {"measurement": "Tumor Burden (week)", "setting": "[8]; dose 5 mg/kg per os after MNU", "value": "2.18 ± 0.69 *^,†,‡,‖ week"},
      {"measurement": "Tumor Latency (week)", "setting": "[8]; dose 5 mg/kg per os after MNU", "value": "12 *^,†,‡ week"},
      {"measurement": "Tumor Volume (mm^3)", "setting": "[8]; dose 5 mg/kg per os after MNU", "value": "0.78 ± 0.43 *^,†,‡,‖ mm^3"},
      {"measurement": "Tumor Burden (week)", "setting": "[8]; [15]", "value": "1.16 ± 0.64 *^,†,§,┴ week"},
      {"measurement": "Tumor Latency (week)", "setting": "[8]; [15]", "value": "15 *^,†,§ week"},
      {"measurement": "Tumor Volume (mm^3)", "setting": "[8]; [15]", "value": "0.66 ± 0.21 *^,†,§,┴ mm^3"},
      {"measurement": "fraction unbound at 5 mg/kg bwt", "setting": "[9]; 5 mg/kg", "value": 0.0134},
      {"measurement": "fraction unbound at 50 mg/kg bwt", "setting": "[9]; 50 mg/kg", "value": 0.0147},
      {"measurement": "CAT", "setting": "[10]; dose 5 mg/kg", "value": "17.46±0.82"},
      {"measurement": "CAT", "setting": "[10]; dose 50 mg/kg", "value": "18.32±0.63"},
      {"measurement": "TBARS", "setting": "[10]; dose 5 mg/kg", "value": 0.24, "unit": "nmol/mg"},
      {"measurement": "TBARS", "setting": "[10]; dose 50 mg/kg", "value": "0.56 ± 0.32", "unit": "nmol/mg"},
      {"measurement": "GSH", "setting": "[10]; dose 5 mg/kg", "value": 9.15, "unit": "mg/g"},
      {"measurement": "GSH", "setting": "[10]; dose 50 mg/kg", "value": 9.74, "unit": "mg/g"},
      {"measurement": "SOD (U/mg)", "setting": "[10]; dose 5 mg/kg", "value": "7.32±0.18", "unit": "U/mg"},
      {"measurement": "SOD (U/mg)", "setting": "[10]; dose 50 mg/kg", "value": "11.46±0.36", "unit": "U/mg"},
      {"measurement": "TP", "setting": "[10]; dose 5 mg/kg", "value": 38.32, "unit": "g/L"},
      {"measurement": "TP", "setting": "[10]; dose 50 mg/kg", "value": 46.47, "unit": "g/L"},
      {"measurement": "breast section histopathology", "setting": "[11]; 5 mg/kg of bwt", "value": "lobuloalveolar unit (LaU) and cuboidal epithelial cells (CE)"},
      {"measurement": "breast section histopathology", "setting": "[11]; 50 mg/kg of bwt", "value": "lobuloalveolar unit (LaU) and cuboidal epithelial cells (CE)"},
      {"measurement": "WL after MFD (day 1, mg)", "setting": "[12]", "value": "320,45 ± 0.62 mg"},
      {"measurement": "logD at 30 min", "setting": "[13]", "value": 2.07}
    ]}
  ]
}
